The assay has as its target voltage-dependent anion channel 1 (VDAC1) (Rattus norvegicus, UniProt Q9Z2L0). The assay is described as follows: microscale thermophoresis with fluorescently labeled purified VDAC1. Format: binding. Background: In MST a laser heats a spot of the sample, and binding alters the fluorescence response.

Chain of voltage-dependent anion channel 1 (VDAC1) (Q9Z2L0 2-283): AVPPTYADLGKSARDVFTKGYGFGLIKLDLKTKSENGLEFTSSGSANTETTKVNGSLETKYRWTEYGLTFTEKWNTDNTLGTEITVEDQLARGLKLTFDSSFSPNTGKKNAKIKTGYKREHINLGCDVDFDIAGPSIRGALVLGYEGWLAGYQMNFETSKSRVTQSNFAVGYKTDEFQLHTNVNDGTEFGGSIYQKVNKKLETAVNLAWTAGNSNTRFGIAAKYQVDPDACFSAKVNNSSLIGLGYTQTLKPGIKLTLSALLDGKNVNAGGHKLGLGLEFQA

Take `C=C(C)[C@@H]1CCC(C)=C[C@H]1c1c(O)cc(CCCCC)cc1O` [CBD, cannabidiol]: the affinity, expressed as Kd, was 11.2 ± 6 µM.

A word on the Kd: it is the free concentration of one partner at which half of the binding sites on the other are occupied at equilibrium, for simple one-to-one binding.

For the origin of these results see paper PMC3877544 (Cell Death & Disease, 2013).
